According to US20050137220A1 (Pharmacia Corporation, priority 2003, published 2005):
Counter-ions that a name gives are not always drawn. Like-named read-outs stand apart in the source and are kept apart here.

Assays:
U937 cells = test: U937 Cell TNFα Release Assay; assay type: cell-based, human; settings: Homo sapiens, mixture of stereoisomers implied unless otherwise noted
MK-2 = MK-2 (Homo sapiens, UniProt P49137); test: Determination of MK-2 IC50 (phosphorylation of HSP-peptide, anion exchange resin capture assay); assay type: biochemical; settings: additional values are replicate IC50 experiments; mixture of stereoisomers implied unless otherwise noted; read-out: MK-2 Avg. IC50
[1] = U-937, LPS-stimulated differentiated U937 cells, TNFα by ELISA, read-out: TNF Release Assay Avg. IC50
[2] = U-937, read-out: TNF Release Assay Avg. IC50, LPS-stimulated differentiated U937 cells, TNFα by ELISA
[3] = U-937, 4 h, LPS-stimulated differentiated U937 cells, TNFα by ELISA, read-out: TNF Release Assay Avg. IC50
[4] = U-937, 4 h, read-out: TNF Release Assay Avg. IC50, LPS-stimulated differentiated U937 cells, TNFα by ELISA

Sequence of MK-2 (P49137 whole entry, species assumed): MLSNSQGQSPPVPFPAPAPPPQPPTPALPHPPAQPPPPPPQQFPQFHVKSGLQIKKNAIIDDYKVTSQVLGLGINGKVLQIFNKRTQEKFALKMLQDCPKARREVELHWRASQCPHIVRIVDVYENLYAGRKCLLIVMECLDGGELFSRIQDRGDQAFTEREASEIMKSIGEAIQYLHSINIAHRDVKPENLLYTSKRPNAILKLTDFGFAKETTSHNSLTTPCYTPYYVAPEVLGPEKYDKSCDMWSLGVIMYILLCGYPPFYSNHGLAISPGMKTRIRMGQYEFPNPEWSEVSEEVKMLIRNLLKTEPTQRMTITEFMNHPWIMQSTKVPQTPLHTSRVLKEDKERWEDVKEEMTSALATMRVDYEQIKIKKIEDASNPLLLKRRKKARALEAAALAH

Row | IC50 (U937 cells; [1]) [µM] | IC50 (MK-2) [µM] | IC50 (U937 cells; [3]) [µM] | Compound | IC50 (U937 cells; [2]) [µM] | IC50 (U937 cells; [4]) [µM]
1 | 13.9 | 16.5 |  | COc1ccc2[nH]c3c(c2c1)CCC/C3=N\O (single isomer, unassigned) [Example 75, 6-methoxy-2,3,4,9-tetrahydro-1H-carbazol-1-one oxime] |  | 
2 | 1.89 | 2.1 |  | COc1ccc2[nH]c3c(c2c1)CCC/C3=N\O [Example 19, (1E)-6-methoxy-2,3,4,9-tetrahydro-1H-carbazol-1-one oxime] |  | 
3 | 2.18 | 3.1 |  | COc1ccc2[nH]c3c(c2c1)CCC/C3=N/O [Example 25, (1Z)-6-methoxy-2,3,4,9-tetrahydro-1H-carbazol-1-one oxime] |  | 
4 | 8.54 | 3.24 |  | COc1ccc2[nH]c3c(c2c1)CC(CCCNCCCc1ccccc1)NC3=O (stereo not drawn) [Example 27, 6-methoxy-3-{3-[(3-phenylpropyl)amino]propyl}-2,3,4,9-tetrahydro-1H-beta-carbolin-1-one trifluoroacetate] |  | 
5 |  | 3.52 | 42.4 | COC(=O)c1cccc2c3c([nH]c12)CCNC3=O [Example 29, methyl 1-oxo-2,3,4,5-tetrahydro-1H-pyrido[4,3-b]indole-6-carboxylate] |  | 
6 |  | 3.6 | 2.66 | COc1ccc2[nH]c3c(c2c1)CCCNC3=O [Example 30, 7-methoxy-3,4,5,10-tetrahydroazepino[3,4-b]indol-1(2H)-one hydrochloride] |  | 
7 |  | 4.52 | > 100 | COc1ccc2c3c([nH]c2c1)C(C(=O)O)NCC3 (stereo not drawn) [Example 34, 7-methoxy-2,3,4,9-tetrahydro-1H-beta-carboline-1-carboxylic acid] |  | 
8 | 2.89 | 6.9 |  | COc1ccc2[nH]c3c(c2c1)CCCCC3=NO [Example 49] |  | 
9 |  | 8 | > 100 | CCOC(=O)COc1ccc2[nH]c3c(c2c1)CCNC3C(=O)O (stereo not drawn) [Example 53, 6-(2-ethoxy-2-oxoethoxy)-2,3,4,9-tetrahydro-1H-beta-carboline-1-carboxylic acid trifluoroacetate hydrate] |  | 
10 |  | 8.39 | > 100 | COc1ccc2[nH]c3c(c2c1)CC(C)(C)NC3C(=O)O (stereo not drawn) [Example 54, 6-methoxy-3,3-dimethyl-2,3,4,9-tetrahydro-1H-beta-carboline-1-carboxylic acid] |  | 
11 |  | 9.45 | 97.3 | COC(=O)C(Oc1ccc2[nH]c3c(c2c1)CCNC3C(=O)O)c1ccccc1 (stereo not drawn) [Example 57, 6-(2-methoxy-2-oxo-1-phenylethoxy)-2,3,4,9-tetrahydro-1H-beta-carboline-1-carboxylic acid] |  | 
12 |  | 13.8 | 41.3 | COc1ccc2[nH]c3c(c2c1)C(C(F)(F)F)CNC3C(=O)O (stereo not drawn) [Example 66, 6-methoxy-4-(trifluoromethyl)-2,3,4,9-tetrahydro-1H-beta-carboline-1-carboxylic acid] |  | 
13 | 45.7 | 15 |  | COc1ccc2[nH]c3c(c2c1)CCNC3=O [Example 69, 6-methoxy-2,3,4,9-tetrahydro-1H-beta-carbolin-1-one] |  | 
14 |  | 15.3 | > 100 | COC(=O)COc1ccc2[nH]c3c(c2c1)CCNC3C(=O)O (stereo not drawn) [Example 70, 6-(2-methoxy-2-oxoethoxy)-2,3,4,9-tetrahydro-1H-beta-carboline-1-carboxylic acid trifluoroacetate hydrate] |  | 
15 |  | 15.5 | 7.68 | O=C(O)C1NCCc2c1[nH]c1ccc(OCc3ccccc3Cl)cc21 (stereo not drawn) [Example 72, 6-[(2-chlorobenzyl)oxy]-2,3,4,9-tetrahydro-1H-beta-carboline-1-carboxylic acid trifluoroacetate] |  | 
16 |  | 15.8 | > 100 | COc1ccc2[nH]c3c(c2c1)C(C)(C)CNC3C(=O)O (stereo not drawn) [Example 73, 6-methoxy-4,4-dimethyl-2,3,4,9-tetrahydro-1H-beta-carboline-1-carboxylic acid] |  | 
17 |  | 16.7 | > 100 | O=C(O)C1NCCc2c1[nH]c1ccc(OCCCCl)cc21 (stereo not drawn) [Example 76, 6-(3-chloropropoxy)-2,3,4,9-tetrahydro-1H-beta-carboline-1-carboxylic acid hydrochloride] |  | 
18 | 23.2 | 17 |  | O/N=C1\CCCc2c1[nH]c1ccc(I)cc21 [Example 77, 6-iodo-2,3,4,9-tetrahydro-1H-carbazol-1-one oxime] |  | 
19 | 1.59 | 17 |  | COc1ccc2[nH]c3c(c2c1)CCC(C)/C3=N/O (centres unmarked) [Example 78, 6-methoxy-2-methyl-2,3,4,9-tetrahydro-1H-carbazol-1-one oxime] |  | 
20 |  | 17.9 | 17.8 | O=C(O)C1NCCc2c1[nH]c1ccc(OCc3cccc(Cl)c3)cc21 (stereo not drawn) [Example 80, 6-[(3-chlorobenzyl)oxy]-2,3,4,9-tetrahydro-1H-beta-carboline-1-carboxylic acid] |  | 
21 |  | 25.8 | 48.4 | O=C(O)C1NCCc2c1[nH]c1ccc(OCc3ccncc3)cc21 (stereo not drawn) [Example 85, 6-(pyridin-4-ylmethoxy)-2,3,4,9-tetrahydro-1H-beta-carboline-1-carboxylic acid hydrochloride] |  | 
22 |  | 27.7 | > 100 | CN(C)C(=O)COc1ccc2[nH]c3c(c2c1)CCNC3C(=O)O (stereo not drawn) [Example 86, 6-[2-(dimethylamino)-2-oxoethoxy]-2,3,4,9-tetrahydro-1H-beta-carboline-1-carboxylic acid hydrochloride] |  | 
23 |  |  |  | COc1ccc2[nH]c3c(c2c1)C1CCN(C1)C3C(=O)NCc1ccccc1 (centres unmarked) [Example 243, N-benzyl-7-methoxy-3,4,5,10-tetrahydro-1H-2,5-methanoazepino[3,4-b]indole-1-carboxamide hydrochloride] | > 100 | 

Row | Compound | IC50 (U937 cells; [1]) [µM] | IC50 (MK-2) [µM] | IC50 (U937 cells; [3]) [µM] | IC50 (U937 cells; [2]) [µM] | IC50 (U937 cells; [4]) [µM]
24 | COc1ccc2[nH]c3c(c2c1)CC(CCCNCCc1ccccc1)NC3=O (centres unmarked) [Example 18, trifluoroacetate] |  | 2.03 |  | 23.7 | 
25 | COc1ccc2[nH]c3c(c2c1)CC(CCCN)NC3=O (stereo not drawn) [Example 38, 3-(3-aminopropyl)-6-methoxy-2,3,4,9-tetrahydro-1H-beta-carbolin-1-one trifluoroacetate] | 36.7 | 5.5 |  |  | 
26 | CCCC1CNC(C(=O)O)c2[nH]c3ccc(OC)cc3c21 (stereo not drawn) [Example 55, 6-methoxy-4-propyl-2,3,4,9-tetrahydro-1H-beta-carboline-1-carboxylic acid] |  | 8.47 |  |  | > 100
27 | CCCCOc1ccc2[nH]c3c(c2c1)CCNC3C(=O)O (stereo not drawn) [Example 60, 6-butoxy-2,3,4,9-tetrahydro-1H-beta-carboline-1-carboxylic acid] |  | 10.1 | > 100 |  | 
28 | COc1ccc2[nH]c3c(c2c1)CC(CCCNCc1ccccc1)NC3=O (stereo not drawn) [Example 62, 3-[3-(benzylamino)propyl]-6-methoxy-2,3,4,9-tetrahydro-1H-beta-carbolin-1-one trifluoroacetate] | 24.9 | 10.5 |  |  | 
29 | O=C(O)C1NCCc2c1[nH]c1ccc(OCCCCCl)cc21 (stereo not drawn) [Example 79, 6-(4-chlorobutoxy)-2,3,4,9-tetrahydro-1H-beta-carboline-1-carboxylic acid hydrochloride] |  | 17.4 | > 100 |  | 
30 | O=C(O)C1NCCc2c1[nH]c1ccc(Br)cc21 (stereo not drawn) [Example 89, 6-bromo-2,3,4,9-tetrahydro-1H-beta-carboline-1-carboxylic acid compound with ethanol(1:1) hydrochloride] |  | 28.2 |  |  | > 100
